Test results from patent US20260021092A1, “STRUCTURE-BASED DESIGN OF A NOVEL CLASS OF DRUGS FOR NEURODEGENERATIVE DISEASE” (The Regents of the University of California, priority 2022, published 2026).

Tests used:
[1] = biological target: T1, recombinant alpha-synuclein fibrils (Homo sapiens, UniProt P37840); experiment: Thioflavin T fluorescence of alpha-synuclein fibrils; format: biochemical; conditions: equimolar 100 μM:100 μM, 48 hours at 37° C. in 1×PBS
T1 construct: made in house; host or cells: E. coli BL21(DE3) Gold
Description: Both compounds were incubated with equimolar ratios of recombinant alpha-synuclein fibrils (100 μM:100 μM) for 48 hours at 37° C. in 1×PBS. After incubation, Thioflavin T (ThT), a fluorescent marker of amyloid fibrils, was added to the samples and ThT fluorescence was measured. EGCG was used as a positive control for comparison. […] Next, transmission electron microscopy (EM) was performed for each sample. […] To obtain a quantitative evaluation of fibril reduction, fibrils were first incubated for 72 hours with compound, then 10 micrographs from random grid points were taken for each sample, and the numbers of fibrils per image were counted (FIG. 5c). […] Western blot analysis, staining for alpha-synuclein, was performed for fibril samples incubated with compounds for 48 hours (FIG. 5d). For untreated alpha-synuclein fibrils, we see a prominent band at 14 kDa corresponding with protein monomer. We also observe a large smear of higher molecular weight alpha-synuclein species, likely corresponding to oligomers or small fibrils, and a dark band at the top of the gel likely from larger fibrils. […] These physical and chemical properties are more predictive of oral bioavailability and central nervous system penetration compared to EGCG, making them more viable candidates for further drug development.
Compounds were incubated quiescently with fibril samples (both recombinant and brain-derived) for 72 hours at 37° C.

[2] = biological target: T2, recombinant alpha-synuclein fibrils seeding HEK293T cells expressing YFP-fused A53T alpha-synuclein (Homo sapiens, UniProt P37840); experiment: Alpha-synuclein biosensor cell seeding assay, recombinant fibrils; format: cell-based; parameters: number of fluorescent puncta (seeded aggregates): dose or concentration left out as unconfirmed; conditions: for number of fluorescent puncta (seeded aggregates): 48 hours pre-incubation
T2 construct: made in house; host or cells: seed: E. coli BL21(DE3) Gold; reporter: stably transfected HEK293T cells from the Marc Diamond lab
Text: It is thought that alpha-synuclein pathology propagates throughout the brain via a prion-like seeding mechanism^20. Alpha-synuclein aggregates in one cell can fragment and spread to neighboring cells, where they seed the aggregation of soluble protein. Molecules able to disaggregate pre-formed fibrils may be able to interrupt this process. To that end, we assessed if both compounds could mitigate intracellular seeding of αSyn fibrils using alpha-synuclein biosensor cells-HEK293T cells expressing A53T mutant alpha-synuclein fused with yellow fluorescent protein (YFP). At baseline, the fluorescently labeled alpha-synuclein remains soluble within the cell, visible as diffuse fluorescence. However, the liposome-mediated transduction of exogenous αSyn fibrils into the cells induces aggregation of the endogenous protein, and the aggregates can be visualized and quantified as fluorescent puncta within the cell.
HEK293T biosensor cells stably expressing YFP-fused A53T mutant alpha-synuclein, developed and provided by the lab of Marc Diamond at UTSW were used. […] Prior to adding to cells, the coincubated compound/fibril solution was sonicated for 5 minutes in a cuphorn water bath, then mixed for 20 minutes with Lipofectamine 2000 in OptiMEM (1:20 dilution) for 20 minutes. 10 uL of the inhibitor/fibril+Lipofectamine mixture was added to 90 uL of cells plated in black 96-well tissue culture plates in triplicate for each concentration of compound tested. The number of seeded aggregates was quantified using a Celigo Image Cytometer (Nexcelom) in the YFP channel. Images were processed in ImageJ, background fluorescence from unseeded cells was subtracted, and the number of particles per image were counted using the Particle Analyzer function. The quantity of aggregates in each well was normalized to cell confluence. Standard deviation between triplicates and a nonlinear regression curve was used to calculate IC50 values for dose response curves. High quality fluorescent images were obtained using a ZEISS Axio Observer D1 fluorescence microscope in the YFP channel.

[3] = biological target: T3, MSA brain fibrils seeding HEK293T alpha-synuclein biosensor cells (Homo sapiens, UniProt P37840); experiment: Alpha-synuclein biosensor cell seeding assay, MSA brain fibrils; format: cell-based; conditions: sub micromolar concentrations, 48 hours pre-incubation
T3 construct: Extraction of sarkosyl-insoluble alpha-synuclein fibrils from neuropathologically confirmed brain samples of patients diagnosed with MSA; from tissue; host or cells: seed: MSA patient brain; reporter: stably transfected HEK293T cells from the Marc Diamond lab
Description: Next, we tested the efficacy of the compounds to mitigate the intracellular seeding of MSA fibrils in biosensor cells. Brain-derived MSA fibrils robustly seed intracellular alpha-synuclein in HEK293T biosensor cells^21. […] Cells were imaged 48 hours and the number of fluorescent puncta per sample well was quantified.
HEK293T biosensor cells stably expressing YFP-fused A53T mutant alpha-synuclein, developed and provided by the lab of Marc Diamond at UTSW were used. Cells were grown in DMEM (Life Technologies, cat. 11965092) with FBS (10% vol/vol; Life Technologies, cat. A3160401), penicillin/streptomycin (1%; Life Technologies, cat. 15140122), and Glutamax (1%; Life Technologies, cat. 35050061), at 37° C. and 5% CO2 in a humidified incubator. Compounds were incubated with recombinant or patient-derived alpha-synuclein fibrils for 48 hours in OptiMEM media then applied to ˜70% confluent biosensor cells. Prior to adding to cells, the coincubated compound/fibril solution was sonicated for 5 minutes in a cuphorn water bath, then mixed for 20 minutes with Lipofectamine 2000 in OptiMEM (1:20 dilution) for 20 minutes. 10 uL of the inhibitor/fibril+Lipofectamine mixture was added to 90 uL of cells plated in black 96-well tissue culture plates in triplicate for each concentration of compound tested. The number of seeded aggregates was quantified using a Celigo Image Cytometer (Nexcelom) in the YFP channel. Images were processed in ImageJ, background fluorescence from unseeded cells was subtracted, and the number of particles per image were counted using the Particle Analyzer function. The quantity of aggregates in each well was normalized to cell confluence. Standard deviation between triplicates and a nonlinear regression curve was used to calculate IC50 values for dose response curves. High quality fluorescent images were obtained using a ZEISS Axio Observer D1 fluorescence microscope in the YFP channel. […]

| SMILES | ThT signal [1] | number of fluorescent puncta (seeded aggregates) [2] | seeding at low compound concentrations [2] | intracellular seeding by MSA brain fibrils [3] |
| --- | --- | --- | --- | --- |
| Cc1cccc(C)c1NC(=O)Cn1nc(Cc2ccccc2)c2ccccc2c1=O [CNS-11g, 2-(4-benzyl-1-oxophthalazin-2-yl)-N-(2,6-dimethylphenyl)acetamide] | reduction in ThT signal | dose-dependent reduction in aggregates | not seen | very significant reduction in intracellular seeding |
| Cc1cc(C)c(NC(=O)Cn2nc3c4c(cccc4c2=O)-c2ccccc2-3)c(C)c1 [CNS-11, N-mesityl-2-(3-oxoindeno[1,2,3-de]phthalazin-2(3H)-yl)acetamide] | reduction in ThT signal | dose-dependent reduction in aggregates | initial increase of seeding | very significant reduction in intracellular seeding |
| O=C(O[C@@H]1Cc2c(O)cc(O)cc2O[C@@H]1c1cc(O)c(O)c(O)c1)c1cc(O)c(O)c(O)c1 [EGCG, epigallocatechin gallate] | reduction in ThT signal | dose-dependent reduction |  | very significant reduction in intracellular seeding |
